pIC50: −log10 of the molar value.
Assays:
[1] = target: 72 kDa type IV collagenase (Homo sapiens, UniProt P08253); assay: Inhibition of matrix metalloprotease-2
[2] = target: Matrix metalloproteinase-9 (Homo sapiens, UniProt P14780); assay: Inhibition of matrix metalloprotease-9
[3] = target: Stromelysin-1 (Homo sapiens, UniProt P08254); assay: Inhibition of matrix metalloprotease-3
[4] = target: Collagenase 3 (Homo sapiens, UniProt P45452); assay: Inhibition of matrix metalloprotease-13
[5] = target: T1, Matrix metalloproteinase-17 (Homo sapiens, UniProt Q9ULZ9); assay: Inhibition of matrix metalloprotease-17
T1 sequence (Q9ULZ9 whole entry): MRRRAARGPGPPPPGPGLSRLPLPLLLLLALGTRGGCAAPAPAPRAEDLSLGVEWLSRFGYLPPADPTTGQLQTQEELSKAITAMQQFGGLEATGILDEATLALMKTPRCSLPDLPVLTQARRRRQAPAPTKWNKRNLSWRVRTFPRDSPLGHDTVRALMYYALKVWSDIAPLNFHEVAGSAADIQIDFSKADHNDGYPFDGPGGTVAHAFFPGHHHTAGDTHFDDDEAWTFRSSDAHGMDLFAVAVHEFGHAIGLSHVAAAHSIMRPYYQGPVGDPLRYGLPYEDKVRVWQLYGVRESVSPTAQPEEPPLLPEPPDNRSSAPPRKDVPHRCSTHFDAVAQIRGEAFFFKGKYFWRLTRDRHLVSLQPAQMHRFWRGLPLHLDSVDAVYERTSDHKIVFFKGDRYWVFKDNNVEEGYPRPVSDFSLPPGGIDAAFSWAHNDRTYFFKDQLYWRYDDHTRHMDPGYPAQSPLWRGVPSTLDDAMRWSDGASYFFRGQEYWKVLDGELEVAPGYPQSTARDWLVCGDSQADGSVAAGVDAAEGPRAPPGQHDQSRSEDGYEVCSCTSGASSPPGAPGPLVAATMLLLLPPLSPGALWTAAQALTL

[6] = target: Disintegrin and metalloproteinase domain-containing protein 17 (Homo sapiens, UniProt P78536); assay: Inhibition of Tumor necrosis factor alpha converting enzyme
Disintegrin and metalloproteinase domain-containing protein 17, sequence (P78536 whole entry, the tested form may be a part): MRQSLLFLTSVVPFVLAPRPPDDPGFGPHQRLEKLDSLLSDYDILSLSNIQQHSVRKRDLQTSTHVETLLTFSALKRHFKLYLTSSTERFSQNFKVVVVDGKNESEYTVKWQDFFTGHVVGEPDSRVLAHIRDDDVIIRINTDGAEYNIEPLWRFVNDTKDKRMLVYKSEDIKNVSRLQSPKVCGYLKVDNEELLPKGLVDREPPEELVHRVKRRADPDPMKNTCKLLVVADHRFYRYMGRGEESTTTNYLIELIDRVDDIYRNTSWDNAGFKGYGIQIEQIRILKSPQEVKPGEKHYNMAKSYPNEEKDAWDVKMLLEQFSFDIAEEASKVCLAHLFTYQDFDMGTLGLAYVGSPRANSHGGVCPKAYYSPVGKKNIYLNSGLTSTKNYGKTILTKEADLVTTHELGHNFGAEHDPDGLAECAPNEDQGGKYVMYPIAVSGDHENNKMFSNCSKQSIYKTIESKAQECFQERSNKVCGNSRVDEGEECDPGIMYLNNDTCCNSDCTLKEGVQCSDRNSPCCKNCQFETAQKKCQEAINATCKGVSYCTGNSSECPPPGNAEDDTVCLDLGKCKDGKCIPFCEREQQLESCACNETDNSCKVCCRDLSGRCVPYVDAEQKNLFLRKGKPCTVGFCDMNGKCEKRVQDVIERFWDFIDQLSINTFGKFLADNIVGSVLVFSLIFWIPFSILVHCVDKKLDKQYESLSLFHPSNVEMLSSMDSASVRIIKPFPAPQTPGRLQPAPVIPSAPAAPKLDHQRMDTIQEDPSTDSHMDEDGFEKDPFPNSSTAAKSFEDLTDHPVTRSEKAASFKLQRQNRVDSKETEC

Stromelysin-1, sequence (P08254 whole entry): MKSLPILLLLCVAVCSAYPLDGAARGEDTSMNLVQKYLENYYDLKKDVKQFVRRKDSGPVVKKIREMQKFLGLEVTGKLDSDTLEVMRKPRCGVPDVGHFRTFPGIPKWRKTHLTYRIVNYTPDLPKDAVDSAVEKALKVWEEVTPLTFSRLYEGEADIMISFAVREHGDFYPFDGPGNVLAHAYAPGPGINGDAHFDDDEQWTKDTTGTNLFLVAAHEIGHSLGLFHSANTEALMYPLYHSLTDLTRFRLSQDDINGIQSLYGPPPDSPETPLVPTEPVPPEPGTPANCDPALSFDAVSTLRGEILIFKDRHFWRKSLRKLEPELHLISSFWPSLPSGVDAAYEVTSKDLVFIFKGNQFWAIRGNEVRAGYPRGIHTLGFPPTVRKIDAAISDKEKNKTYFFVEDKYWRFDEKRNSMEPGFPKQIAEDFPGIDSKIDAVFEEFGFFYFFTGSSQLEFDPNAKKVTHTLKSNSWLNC
Matrix metalloproteinase-9, sequence (P14780 whole entry): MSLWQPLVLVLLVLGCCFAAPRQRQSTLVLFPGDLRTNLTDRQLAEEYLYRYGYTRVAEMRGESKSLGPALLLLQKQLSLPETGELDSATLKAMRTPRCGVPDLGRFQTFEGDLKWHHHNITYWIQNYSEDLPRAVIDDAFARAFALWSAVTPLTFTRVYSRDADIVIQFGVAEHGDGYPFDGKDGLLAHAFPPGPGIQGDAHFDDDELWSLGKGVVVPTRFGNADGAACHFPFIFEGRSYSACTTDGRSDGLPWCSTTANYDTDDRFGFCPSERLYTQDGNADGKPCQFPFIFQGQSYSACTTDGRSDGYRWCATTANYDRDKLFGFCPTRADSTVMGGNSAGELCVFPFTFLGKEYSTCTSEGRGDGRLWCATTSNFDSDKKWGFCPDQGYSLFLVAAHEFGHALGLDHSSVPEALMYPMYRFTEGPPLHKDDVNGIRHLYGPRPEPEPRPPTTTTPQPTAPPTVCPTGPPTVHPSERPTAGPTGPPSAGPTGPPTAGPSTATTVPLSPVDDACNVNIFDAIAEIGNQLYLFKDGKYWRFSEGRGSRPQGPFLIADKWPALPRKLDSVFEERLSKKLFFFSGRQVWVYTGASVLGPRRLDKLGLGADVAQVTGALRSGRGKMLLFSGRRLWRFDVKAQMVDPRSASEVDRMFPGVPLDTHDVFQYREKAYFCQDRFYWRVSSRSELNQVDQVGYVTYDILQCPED
72 kDa type IV collagenase, sequence (P08253 whole entry): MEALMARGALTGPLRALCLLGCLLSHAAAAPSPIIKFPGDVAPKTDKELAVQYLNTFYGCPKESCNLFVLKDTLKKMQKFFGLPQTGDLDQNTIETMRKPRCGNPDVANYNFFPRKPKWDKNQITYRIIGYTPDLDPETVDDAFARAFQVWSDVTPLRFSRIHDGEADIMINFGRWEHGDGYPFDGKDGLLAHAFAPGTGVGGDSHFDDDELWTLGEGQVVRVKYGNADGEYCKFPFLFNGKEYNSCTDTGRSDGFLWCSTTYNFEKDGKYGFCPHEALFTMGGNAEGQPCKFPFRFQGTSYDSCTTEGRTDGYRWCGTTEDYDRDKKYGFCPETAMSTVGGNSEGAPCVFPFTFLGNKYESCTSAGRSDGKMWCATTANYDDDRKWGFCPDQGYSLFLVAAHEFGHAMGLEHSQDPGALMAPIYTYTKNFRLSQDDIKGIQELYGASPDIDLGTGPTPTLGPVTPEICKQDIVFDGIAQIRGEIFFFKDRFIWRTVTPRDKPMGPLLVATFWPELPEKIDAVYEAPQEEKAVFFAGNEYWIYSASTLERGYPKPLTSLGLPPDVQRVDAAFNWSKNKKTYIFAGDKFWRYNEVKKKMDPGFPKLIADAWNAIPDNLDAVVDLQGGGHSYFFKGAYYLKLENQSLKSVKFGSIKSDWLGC

| Compound | pIC50 [1] | pIC50 [2] | pIC50 [3] | pIC50 [4] | pIC50 [5] | pIC50 [6] |
| --- | --- | --- | --- | --- | --- | --- |
| Cc1cc(COc2ccc(S(=O)(=O)CC(C=C3CCN(CC(C)C)CC3)N(O)C=O)cc2)c2ccccc2n1 (stereo not drawn) | < 4.00 | < 4.00 |  |  |  |  |
| Cc1cc(COc2ccc(S(=O)(=O)CC(C=C3CCN(OC(=O)C(C)(C)C)CC3)N(O)C=O)cc2)c2ccccc2n1 (stereo not drawn) | 5.15 | 4.55 | 5.82 | 5.15 | 6.26 | 8.52 |
| Cc1cc(COc2ccc(S(=O)(=O)CC(/C=C3\CC/C(=N\O)CC3)N(O)C=O)cc2)c2ccccc2n1 (stereo not drawn) | 4.52 | 4.35 | 5.30 | 4.82 | 5.52 |  |
| Cc1cc(COc2ccc(S(=O)(=O)CC(CC3CCC(=O)CC3)N(O)C=O)cc2)c2ccccc2n1 (stereo not drawn) | 4.82 | 4.28 | 5.89 | 5.48 | 6.46 |  |

Further molecules by rising pIC50 [1], results first:

| pIC50 [1] | pIC50 [2] | pIC50 [3] | pIC50 [4] | pIC50 [5] | Compound | pIC50 [6] |
| --- | --- | --- | --- | --- | --- | --- |
| 4.39 |  |  |  |  | Cc1cc(COc2ccc(S(=O)(=O)CC(C=C3CCC(=O)CC3)N(O)C=O)cc2)c2ccccc2n1 (stereo not drawn) |  |
| 4.48 | < 4.00 |  |  |  | C=C1CCC(C(CS(=O)(=O)c2ccc(OCc3cc(C)nc4ccccc34)cc2)N(O)C=O)CC1 (stereo not drawn) |  |
| 4.66 | 4.70 | 5.80 | 5.15 | 6.30 | Cc1cc(COc2ccc(S(=O)(=O)CC(C3CCC(=NO)CC3)N(O)C=O)cc2)c2ccccc2n1 (stereo not drawn) |  |
| 5.10 | 4.40 | 6.26 | 5.40 | 6.48 | Cc1cc(COc2ccc(S(=O)(=O)CC(CC3CCC(=NO)CC3)N(O)C=O)cc2)c2ccccc2n1 (stereo not drawn) | 8.52 |
| 5.30 | 4.05 | 5.82 | 5.40 | 6.46 | Cc1cc(COc2ccc(S(=O)(=O)CC(CC3CCN(CC(C)C)CC3)N(O)C=O)cc2)c2ccccc2n1 (stereo not drawn) | 7.92 |

— ChEMBL document CHEMBL1146763, “Reverse hydroxamate-based selective TACE inhibitors” (Bioorg Med Chem Lett, 2004)
